Assay results taken from ChEMBL document CHEMBL1201862, “PubChem BioAssay data set” (2004).
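Tested at 5 concentrations; 48 h exposure; 96-well plates; endpoints linearly interpolated, else capped at highest concentration. Abbreviation: GI50, concentration required for 50% inhibition of growth.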 The source made the active and inactive calls. Rule as the data show it: active = GI50 up to about 1.1 µM and inactive = higher.

How the values were obtained:
Assay in all cases: NCI anticancer screen, dose series, 48 h
[1] = tested on: OVCAR-3
[2] = tested on: SW-620
[3] = tested on: OVCAR-8
[4] = tested on: SK-MEL-28
[5] = tested on: M14
[6] = tested on: SF-539
[7] = tested on: HL-60
[8] = tested on: RXF 393
[9] = tested on: MDA-MB-231
[10] = tested on: DU-145
[11] = tested on: RPMI-8226
[12] = tested on: HCT-15
[13] = tested on: HOP-62
[14] = tested on: Malme-3M
[15] = tested on: SNB-19
[16] = tested on: MDA-MB-435
[17] = tested on: MOLT-4
[18] = tested on: HT-29
[19] = tested on: COLO 205
[20] = tested on: UACC-62

Compound | GI50 [1] | GI50 [2] | GI50 [3] | GI50 [4] | GI50 [5] | GI50 [6] | GI50 [7] | GI50 [8] | GI50 [9] | GI50 [10] | GI50 [11] | GI50 [12] | GI50 [13] | GI50 [14] | GI50 [15] | GI50 [16] | GI50 [17] | GI50 [18] | GI50 [19] | GI50 [20]
Nc1nc(Cl)cc(NCC2(CO)CCC(CCc3ccccc3)C2)n1 (stereo not given) | 7.45 µM (inactive) | 2.02 µM (inactive) | 14.6 µM (inactive) | 19.6 µM (inactive) | 13.7 µM (inactive) | 17.9 µM (inactive) | 6.21 µM (inactive) | 14.8 µM (inactive) | 16.6 µM (inactive) | 14.8 µM (inactive) | 2.86 µM (inactive) | 16.3 µM | 1.05 µM (active) | 16 µM (inactive) | 15.9 µM (inactive) | 14.3 µM (inactive) | 2.7 µM (inactive) | 7.94 µM (inactive) | 12.8 µM (inactive) | 13.2 µM (inactive)
O=C(/C=C\Nc1ccccc1O)C(Cl)(Cl)Cl | 17.8 µM (inactive) | > 100 µM (inactive) | 35.9 µM (inactive) | 43.1 µM (inactive) | 38.9 µM (inactive) | 56.2 µM (inactive) | 21.8 µM (inactive) | 33.5 µM (inactive) | > 100 µM (inactive) | 45.8 µM (inactive) | 25.3 µM (inactive) | 38.5 µM | 24.1 µM (inactive) | 82 µM (inactive) | 76.2 µM (inactive) | 20.6 µM (inactive) | 27.7 µM (inactive) | 36.1 µM (inactive) | 48.3 µM (inactive) | < 0.01 µM (active)
CCOP(=O)(OCC)/C(C#N)=C/c1cnc[nH]1 | > 100 µM (inactive) | > 100 µM (inactive) | > 100 µM (inactive) | > 100 µM (inactive) | > 100 µM (inactive) | > 100 µM (inactive) | > 100 µM (inactive) | > 100 µM (inactive) | > 100 µM (inactive) | > 100 µM (inactive) | > 100 µM (inactive) | > 100 µM | > 100 µM (inactive) | > 100 µM (inactive) | > 100 µM (inactive) | > 100 µM (inactive) | > 100 µM (inactive) | > 100 µM (inactive) | > 100 µM (inactive) | > 100 µM (inactive)
Cc1ccc(-c2c3c(n(C4OC(CO)C(O)C(O)C4O)c(=S)c2C#N)CC(C)(C)CC3=O)cc1 (stereo not given) | > 100 µM (inactive) | > 100 µM (inactive) | 71.9 µM (inactive) | 52.2 µM (inactive) | 93.5 µM (inactive) | 39.6 µM (inactive) | 41.5 µM (inactive) | > 100 µM (inactive) | 80.5 µM (inactive) | > 100 µM (inactive) | 32.7 µM (inactive) | 45.9 µM | > 100 µM (inactive) | 96.6 µM (inactive) | > 100 µM (inactive) | 65.2 µM (inactive) | 36.5 µM (inactive) | 33.1 µM (inactive) | > 10 µM (inactive) | 46.5 µM (inactive)
CC1=CC(C)C(C)N(CCNS(=O)(=O)c2ccc(C)cc2)c2ccccc21 (stereo not given) | 12.5 µM (inactive) | > 10 µM (inactive) | 14.6 µM (inactive) | 12.9 µM (inactive) | 12.3 µM (inactive) | 13.4 µM (inactive) | 14 µM (inactive) | 12.1 µM (inactive) | 13.8 µM (inactive) | 11.1 µM (inactive) | 12.2 µM (inactive) | 18.2 µM | 16.3 µM (inactive) | 14.1 µM (inactive) | > 31.6 µM (inactive) | 13.5 µM (inactive) | 12.2 µM (inactive) | 12.5 µM (inactive) | 12.8 µM (inactive) | 12.2 µM (inactive)
Oc1cccc2ccc(SSc3ccc4cccc(O)c4n3)nc12 | 16.1 µM (inactive) | 25.4 µM (inactive) | 19.1 µM (inactive) | 20.7 µM (inactive) | 16 µM (inactive) | 19.8 µM (inactive) | 22.8 µM (inactive) | 16 µM (inactive) | 16.7 µM (inactive) | 73.1 µM (inactive) | 26.1 µM (inactive) | 22.3 µM | 17.7 µM (inactive) | 16 µM (inactive) | > 100 µM (inactive) | 19 µM (inactive) | 9.59 µM (inactive) | 18.7 µM (inactive) | 18.8 µM (inactive) | 17.4 µM (inactive)
O=C1c2ccccc2-n2c1nc1ccc([N+](=O)[O-])cc1c2=O | 21.1 µM (inactive) | 45.1 µM (inactive) | 21.3 µM (inactive) | 55.1 µM (inactive) | 91.8 µM (inactive) | > 100 µM (inactive) | 13.9 µM (inactive) | 60.4 µM (inactive) | 45.7 µM (inactive) | > 100 µM (inactive) | 25.2 µM (inactive) | 29.3 µM | 30.6 µM (inactive) | 51.5 µM (inactive) | > 100 µM (inactive) | > 10 µM (inactive) | 26.3 µM (inactive) | > 10 µM (inactive) | > 100 µM (inactive) | 44.2 µM (inactive)
